Laboratory results from ChEMBL document CHEMBL1201862, “PubChem BioAssay data set” (2004).
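Five concentrations, 48 hours, 96-well plates. GI50 = concentration required for 50% inhibition of growth.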 Active and inactive are the calls of the source. Cut-off read from the data, not from the text of the source: active = GI50 up to about 1.1 µM and inactive = higher.

Legend:
Assay in all cases: NCI tumour cell line growth inhibition, 48 h
[1] = test system: SNB-75
[2] = test system: NCI-H226
[3] = test system: HL-60
[4] = test system: 786-0
[5] = test system: KM-20L2
[6] = test system: CCRF-CEM
[7] = test system: A498
[8] = test system: K562
[9] = test system: HOP-62
[10] = test system: OVCAR-3
[11] = test system: KM12
[12] = test system: UO-31
[13] = test system: M14
[14] = test system: OVCAR-8
[15] = test system: SK-MEL-5
[16] = test system: UACC-257
[17] = test system: SF-295
[18] = test system: SF-268
[19] = test system: COLO 205
[20] = test system: OVCAR-5
[21] = test system: CAKI-1
[22] = test system: M19-MEL
[23] = test system: SNB-19
[24] = test system: TK-10
[25] = test system: SR
[26] = test system: SF-539
[27] = test system: SN12C
[28] = test system: LOX IMVI
[29] = test system: IGROV-1
[30] = test system: NCI-H460
[31] = test system: UACC-62
[32] = test system: ACHN
[33] = test system: SK-OV-3
[34] = test system: SNB-78
[35] = test system: DMS-273
[36] = test system: A549
[37] = test system: NCI-H23
[38] = test system: SK-MEL-28
[39] = test system: HCT-116
[40] = test system: EKVX
[41] = test system: OVCAR-4
[42] = test system: Malme-3M
[43] = test system: SK-MEL-2
[44] = test system: HCT-15
[45] = test system: U-251
[46] = test system: RXF 393
[47] = test system: RPMI-8226
[48] = test system: NCI-H522
[49] = test system: HCC 2998
[50] = test system: SW-620
[51] = test system: HT-29
[52] = test system: MOLT-4

SMILES: COC(=O)c1s/c(=N\C(=S)N(C)C)n(-c2ccc(Cl)cc2)c1C(=O)OC
- GI50 [1]: > 10 µM (inactive)
- GI50 [2]: > 100 µM (inactive)
- GI50 [3]: > 100 µM (inactive)
- GI50 [4]: > 100 µM (inactive)
- GI50 [5]: > 100 µM (inactive)
- GI50 [6]: > 100 µM (inactive)
- GI50 [7]: > 100 µM (inactive)
- GI50 [8]: > 100 µM (inactive)
- GI50 [9]: 70.3 µM (inactive)
- GI50 [10]: > 100 µM (inactive)
- GI50 [11]: > 100 µM (inactive)
- GI50 [12]: > 100 µM (inactive)
- GI50 [13]: > 100 µM (inactive)
- GI50 [14]: > 100 µM (inactive)
- GI50 [15]: > 10 µM (inactive)
- GI50 [16]: > 100 µM (inactive)
- GI50 [17]: > 100 µM (inactive)
- GI50 [18]: > 100 µM (inactive)
- GI50 [19]: > 100 µM (inactive)
- GI50 [20]: > 100 µM (inactive)
- GI50 [21]: 59.2 µM (inactive)
- GI50 [22]: > 100 µM (inactive)
- GI50 [23]: > 100 µM (inactive)
- GI50 [24]: > 100 µM (inactive)
- GI50 [25]: > 100 µM (inactive)
- GI50 [26]: 95.5 µM (inactive)
- GI50 [27]: > 100 µM (inactive)
- GI50 [28]: > 100 µM (inactive)
- GI50 [29]: > 10 µM (inactive)
- GI50 [30]: 71.8 µM (inactive)
- GI50 [31]: > 10 µM (inactive)
- GI50 [32]: > 100 µM (inactive)
- GI50 [33]: > 10 µM (inactive)
- GI50 [34]: > 100 µM (inactive)
- GI50 [35]: > 100 µM (inactive)
- GI50 [36]: > 100 µM (inactive)
- GI50 [37]: > 100 µM (inactive)
- GI50 [38]: > 100 µM (inactive)
- GI50 [39]: > 100 µM (inactive)
- GI50 [40]: > 100 µM (inactive)
- GI50 [41]: 56.4 µM (inactive)
- GI50 [42]: > 100 µM (inactive)
- GI50 [43]: > 100 µM (inactive)
- GI50 [44]: > 100 µM
- GI50 [45]: > 100 µM (inactive)
- GI50 [46]: 78.9 µM (inactive)
- GI50 [47]: > 100 µM (inactive)
- GI50 [48]: 49 µM (inactive)
- GI50 [49]: > 100 µM (inactive)
- GI50 [50]: > 100 µM (inactive)
- GI50 [51]: > 100 µM (inactive)
- GI50 [52]: > 100 µM (inactive)
